The record followed here is patent US20210101874A1, “MICROBIOCIDAL OXADIAZOLE DERIVATIVES” (SYNGENTA PARTICIPATIONS AG, priority 2017, published 2021).

The test system of assay [1] is Puccinia recondita f. sp. Tritici. As to the kind of experiment: Puccinia recondita f. sp. tritici / wheat / leaf disc preventative (brown rust). The format is in vivo. As to conditions: foliar, 200 ppm in the applied formulation, wheat leaf segments cv. Kanzler, inoculated 1 day after application, compared to untreated, assessed 7 to 9 days after application, read-out: disease control. Here is the method: Leaf disks or leaf segments of various plant species are cut from plants grown in a greenhouse. The cut leaf disks or segments are placed in multiwell plates (24-well format) onto water agar. The leaf disks are sprayed with a test solution before (preventative) or after (curative) inoculation. Compounds to be tested are prepared as DMSO solutions (max. 10 mg/ml) which are diluted to the appropriate concentration with 0.025% Tween20 just before spraying. The inoculated leaf disks or segments are incubated under defined conditions (temperature, relative humidity, light, etc.) according to the respective test system. A single evaluation of disease level is carried out 3 to 14 days after inoculation, depending on the pathosystem. Percent disease control relative to the untreated check leaf disks or segments is then calculated. Wheat leaf segments cv. Kanzler were placed on agar in multiwell plates (24-well format) and sprayed with the formulated test compound diluted in water. The leaf disks were inoculated with a spore suspension of the fungus 1 day after application. The inoculated leaf segments were incubated at 19° C. and 75% relative humidity (rh) under a light regime of 12 hours light/12 hours darkness in a climate cabinet and the activity of a compound was assessed as percent disease control compared to untreated when an appropriate level of disease damage appears in untreated check leaf segments (7 to 9 days after application). The following compounds at 200 ppm in the applied formulation give at least 80% disease control in this test when compared to untreated control leaf disks under the same conditions, which show extensive disease development.

Assay [2] has as its system Glomerella lagenarium (Colletotrichum lagenarium). As to the kind of experiment: Glomerella lagenarium (Colletotrichum lagenarium) liquid culture / cucumber / preventative (anthracnose). The format is cell-based. As to conditions: Colletotrichum orbiculare; 20 ppm in the applied formulation; conidia in PDB nutrient broth, 24° C.; 3 to 4 days after application; compared to untreated; read-out: disease control (inhibition of growth measured photometrically). The method, then:
Mycelia fragments or conidia suspensions of a fungus prepared either freshly from liquid cultures of the fungus or from cryogenic storage, are directly mixed into nutrient broth. DMSO solutions of the test compound (max. 10 mg/ml) are diluted with 0.025% Tween20 by a factor of 50 and 10 µl of this solution is pipetted into a microtiter plate (96-well format). The nutrient broth containing the fungal spores/mycelia fragments is then added to give an end concentration of the tested compound. The test plates are incubated in the dark at 24° C. and 96% relative humidity. The inhibition of fungal growth is determined photometrically after 2 to 7 days, depending on the pathosystem, and percent antifungal activity relative to the untreated check is calculated. Conidia of the fungus from cryogenic storage are directly mixed into nutrient broth (PDB—potato dextrose broth). After placing a (DMSO) solution of test compound into a microtiter plate (96-well format), the nutrient broth containing the fungal spores is added. The test plates are incubated at 24° C. and the inhibition of growth is measured photometrically 3 to 4 days after application. The following compounds at 20 ppm in the applied formulation give at least 80% disease control in this test when compared to untreated control under the same conditions, which show extensive disease development.

One may read the inhibition as the share of the control response that was lost under treatment.

Turning to `CCN(Cc1ccc(-c2noc(C(F)(F)F)n2)cc1)S(=O)(=O)CCC(=O)OC` [Compound 1.36, methyl 3-[ethyl-[[4-[5-(trifluoromethyl)-1,2,4-oxadiazol-3-yl]phenyl]methyl]sulfamoyl]propanoate], the pest or weed control at 200 ppm in assay [1] was not below 80%. The inhibition at 20 ppm in assay [2] was not below 80%.
Consider `CN(Cc1ccc(-c2noc(C(F)(F)F)n2)cc1)S(=O)(=O)N1CCCC1` [Compound 1.44, N-methyl-N-[[4-[5-(trifluoromethyl)-1,2,4-oxadiazol-3-yl]phenyl]methyl] pyrrolidine-1-sulfonamide], for which the pest or weed control at 200 ppm in assay [1] was not below 80%. In assay [2], the inhibition at 20 ppm was not below 80%.
As to `COC(=O)CCS(=O)(=O)N(C)Cc1ccc(-c2noc(C(F)(F)F)n2)cc1` [Compound 1.48, methyl 3-[methyl-[[4-[5-(trifluoromethyl)-1,2,4-oxadiazol-3-yl]phenyl]methyl]sulfamoyl]propanoate], the pest or weed control at 200 ppm in assay [1] was not below 80%. Besides, the inhibition at 20 ppm in assay [2] was not below 80%.
Take `COC(=O)CS(=O)(=O)N(C)Cc1ccc(-c2noc(C(F)(F)F)n2)cc1` [Compound 1.53, methyl 2-[methyl-[[4-[5-(trifluoromethyl)-1,2,4-oxadiazol-3-yl]phenyl]methyl]sulfamoyl]acetate]: the pest or weed control at 200 ppm in assay [1] was not below 80%. In addition, the inhibition at 20 ppm in assay [2] was not below 80%.
Take `CC(C)S(=O)(=O)N(C)Cc1ccc(-c2noc(C(F)(F)F)n2)cc1` [Compound 1.54, N-methyl-N-[[4-[5-(trifluoromethyl)-1,2,4-oxadiazol-3-yl]phenyl]methyl] propane-2-sulfonamide]: the pest or weed control at 200 ppm in assay [1] is not below 80%. The inhibition at 20 ppm in assay [2] was not below 80%.
Take `CCN(Cc1ccc(-c2noc(C(F)(F)F)n2)cc1)S(=O)(=O)Cc1ccccc1` [Compound 1.60, N-ethyl-1-phenyl-N-[[4-[5-(trifluoromethyl)-1,2,4-oxadiazol-3-yl]phenyl]methyl] methanesulfonamide]: the pest or weed control at 200 ppm in assay [1] is not below 80%. For the same molecule, the inhibition at 20 ppm in assay [2] was not below 80%.
Turning to `CCCN(Cc1ccc(-c2noc(C(F)(F)F)n2)cc1)S(=O)(=O)c1ccn(C)n1` [Compound 1.65, 1-methyl-N-propyl-N-[[4-[5-(trifluoromethyl)-1,2,4-oxadiazol-3-yl]phenyl]methyl] pyrazole-3-sulfonamide], in assay [1], the pest or weed control at 200 ppm was not below 80%. The inhibition at 20 ppm in assay [2] was not below 80%.
Regarding `CCCN(Cc1ccc(-c2noc(C(F)(F)F)n2)cc1)S(=O)(=O)N1CCCC1` [Compound 1.68, N-propyl-N-[[4-[5-(trifluoromethyl)-1,2,4-oxadiazol-3-yl]phenyl]methyl] pyrrolidine-1-sulfonamide], the pest or weed control at 200 ppm in assay [1] is not below 80%. Further, the inhibition at 20 ppm in assay [2] is not below 80%.
For `CCCN(Cc1ccc(-c2noc(C(F)(F)F)n2)cc1)S(=O)(=O)CC1CCOC1` (stereo not drawn) [Compound 1.71, N-propyl-1-tetrahydrofuran-3-yl-N-[[4-[5-(trifluoromethyl)-1,2,4-oxadiazol-3-yl]phenyl]methyl] methanesulfonamide], the pest or weed control at 200 ppm in assay [1] was not below 80%. Besides, the inhibition at 20 ppm in assay [2] is not below 80%.
On to `CCCN(Cc1ccc(-c2noc(C(F)(F)F)n2)cc1)S(=O)(=O)NC` [Compound 1.80, 3-[4-[[methylsulfamoyl (propyl)amino]methyl]phenyl]-5-(trifluoromethyl)-1,2,4-oxadiazole], for which the pest or weed control at 200 ppm in assay [1] was not below 80%. Further, the inhibition at 20 ppm in assay [2] is not below 80%.
For the molecule `COC(=O)CCS(=O)(=O)N(Cc1ccc(-c2noc(C(F)(F)F)n2)cc1)OC` [Compound 1.93, methyl 3-[methoxy-[[4-[5-(trifluoromethyl)-1,2,4-oxadiazol-3-yl]phenyl]methyl]sulfamoyl]propanoate], the pest or weed control at 200 ppm in assay [1] was not below 80%. The inhibition at 20 ppm in assay [2] was not below 80%.
On to `CC(C)N(Cc1ccc(-c2noc(C(F)(F)F)n2)cc1)S(=O)(=O)N1CCCC1` [Compound 1.97, N-isopropyl-N-[[4-[5-(trifluoromethyl)-1,2,4-oxadiazol-3-yl]phenyl]methyl] pyrrolidine-1-sulfonamide], for which the pest or weed control at 200 ppm in assay [1] was not below 80%. Moreover, in assay [2], the inhibition at 20 ppm is not below 80%.
In the case of `CON(Cc1ccc(-c2noc(C(F)(F)F)n2)cn1)S(=O)(=O)c1ccccc1` [Compound 1.111, N-methoxy-N-[[5-[5-(trifluoromethyl)-1,2,4-oxadiazol-3-yl]-2-pyridyl]methyl] benzenesulfonamide], the pest or weed control at 200 ppm in assay [1] was not below 80%. Also, the inhibition at 20 ppm in assay [2] is not below 80%.
As for `C/C=C/S(=O)(=O)NCc1ccc(-c2noc(C(F)(F)F)n2)cc1` [Compound 2.10, (E)-N-[[4-[5-(trifluoromethyl)-1,2,4-oxadiazol-3-yl]phenyl]methyl] prop-1-ene-1-sulfonamide], the pest or weed control at 200 ppm in assay [1] is not below 80%. Further, in assay [2], the inhibition at 20 ppm is not below 80%.
In the case of `CCCCS(=O)(=O)NCc1ccc(-c2noc(C(F)(F)F)n2)cc1` [Compound 2.12, N-[[4-[5-(trifluoromethyl)-1,2,4-oxadiazol-3-yl]phenyl]methyl] butane-1-sulfonamide], the pest or weed control at 200 ppm in assay [1] is not below 80%. Also, the inhibition at 20 ppm in assay [2] was not below 80%.
With `O=S(=O)(CCC(F)(F)F)NCc1ccc(-c2noc(C(F)(F)F)n2)c(F)c1` [Compound 2.18, 3,3,3-trifluoro-N-[[3-fluoro-4-[5-(trifluoromethyl)-1,2,4-oxadiazol-3-yl]phenyl]methyl] propane-1-sulfonamide], the pest or weed control at 200 ppm in assay [1] is not below 80%. For the same molecule, the inhibition at 20 ppm in assay [2] is not below 80%.
With `CCCCS(=O)(=O)NCc1ccc(-c2noc(C(F)(F)F)n2)c(F)c1` [Compound 2.22, N-[[3-fluoro-4-[5-(trifluoromethyl)-1,2,4-oxadiazol-3-yl]phenyl]methyl] butane-1-sulfonamide], in assay [1], the pest or weed control at 200 ppm was not below 80%. For the same molecule, the inhibition at 20 ppm in assay [2] is not below 80%.
Take `COC(=O)CCS(=O)(=O)NCc1ccc(-c2noc(C(F)(F)F)n2)cc1F` [Compound 2.33, methyl 3-[[2-fluoro-4-[5-(trifluoromethyl)-1,2,4-oxadiazol-3-yl]phenyl]methyl-sulfamoyl] propanoate]: the pest or weed control at 200 ppm in assay [1] was not below 80%. In assay [2], the inhibition at 20 ppm was not below 80%.
`COC(=O)CS(=O)(=O)NCc1ccc(-c2noc(C(F)(F)F)n2)cc1F` [Compound 2.37, methyl 2-[[2-fluoro-4-[5-(trifluoromethyl)-1,2,4-oxadiazol-3-yl]phenyl]methyl-sulfamoyl] acetate]: in assay [1], the pest or weed control at 200 ppm is not below 80%. Besides, in assay [2], the inhibition at 20 ppm was not below 80%.
In the case of `O=S(=O)(NCc1ccc(-c2noc(C(F)(F)F)n2)c(F)c1)c1ccccc1` [Compound 3.9, N-[[3-fluoro-4-[5-(trifluoromethyl)-1,2,4-oxadiazol-3-yl]phenyl]methyl] benzenesulfonamide], in assay [1], the pest or weed control at 200 ppm is not below 80%. Further, the inhibition at 20 ppm in assay [2] is not below 80%.
For `Cc1ccc(S(=O)(=O)NCc2ccc(-c3noc(C(F)(F)F)n3)cc2)s1` [Compound 3.11, 5-methyl-N-[[4-[5-(trifluoromethyl)-1,2,4-oxadiazol-3-yl]phenyl]methyl] thiophene-2-sulfonamide], in assay [1], the pest or weed control at 200 ppm was not below 80%. Moreover, in assay [2], the inhibition at 20 ppm is not below 80%.
Consider `O=S(=O)(CC1CC1(Cl)Cl)NCc1ccc(-c2noc(C(F)(F)F)n2)cc1` (stereo not drawn) [Compound 3.12, 1-(2,2-dichlorocyclopropyl)-N-[[4-[5-(trifluoromethyl)-1,2,4-oxadiazol-3-yl]phenyl]methyl] methanesulfonamide], for which, in assay [1], the pest or weed control at 200 ppm was not below 80%. Further, in assay [2], the inhibition at 20 ppm was not below 80%.
`O=S(=O)(NCc1ccc(-c2noc(C(F)(F)F)n2)cc1)N1CCCC1` [Compound 3.13, N-[[4-[5-(trifluoromethyl)-1,2,4-oxadiazol-3-yl]phenyl]methyl] pyrrolidine-1-sulfonamide]: the pest or weed control at 200 ppm in assay [1] is not below 80%. Also, in assay [2], the inhibition at 20 ppm was not below 80%.
For `O=S(=O)(CC1CC1(Cl)Cl)NCc1ccc(-c2noc(C(F)(F)F)n2)c(F)c1` (stereo not drawn) [Compound 3.16, 1-(2,2-dichlorocyclopropyl)-N-[[3-fluoro-4-[5-(trifluoromethyl)-1,2,4-oxadiazol-3-yl]phenyl]methyl] methanesulfonamide], the pest or weed control at 200 ppm in assay [1] was not below 80%. Also, in assay [2], the inhibition at 20 ppm was not below 80%.
